{"source": "patent US8192962B2", "about": "“Processes for detecting toxic substances” (Daikin Industries, Ltd., priority 2001, dated 2012)", "system": "Metabolism protein genes", "assay": "DNA chip mRNA expression in yeast, metabolism protein genes (Table 7)", "assay_type": "cell-based, Saccharomyces cerevisiae S288C", "experimental": "Yeast (Saccharomyces cerevisiae S288C (α SUC2mal mel gap2 CUP1)) were incubated at 25° C. on YPD medium (yeast extract 1%, polypepton 2%, glucose 2%). One of toxic chemical substances was added to the cells at logarithmic growth phase, and the cells were further incubated for two hours. Cells were cultured without any chemical substance in the same condition, and were used as control. Concentrations of the chemical substances were defined to inhibit the growth of the yeast but not lead to death.\nAfter completion of the incubation, the culture was centrifuged to collect the cells. To the cells, sodium acetate buffer (50 mM sodium acetate, 10 mM EDTA, 1% SDS) was added, and the mixture was shaken at 65° C. for five minutes, followed by returning to room temperature, and obtaining the supernatant, of which the procedures were repeated two times. To the supernatant, ½ amount of a solution of phenol/chloroform was added, and the mixture was centrifuged to give a supernatant, which was added with an equal amount of chloroform, and the mixture was centrifuged to give a supernatant. To the supernatant, an equal amount of isopropanol containing 0.3 M sodium acetate was added, and the mixture was allowed to stand at room temperature for 30 minutes, after which the mixture was centrifuged to give a sediment of the whole RNAs. Seventy % ethanol was added to the sediment, and the mixture was again centrifuged to give a sediment, which was then dried and dissolved in water. mRNA was isolated from the whole RNAs as followings. In view of the fact that a poly A chain is attached to the 3′ terminus of mRNA, a polynucleotide having a poly T structure which was immobilized on the surface of latex beads was used to trap the mRNA, and then the mRNA was washed and eluted with spine column (Oligotex-dT30<Super>mRNA Purification Kit, Takara). Reverse transcription of the mRNA was conducted with a reverse transcriptase (Super Script II Reverse Transcriptase; catalogue No. 18064-014, GibcoBRL) using fluorescence-labeled nucleotides to give cDNAs that were introduced with Cy3-dUTP or Cy5-dUTP during the reverse transcription.\nThe labeled cDNAs were dissolved in TE buffer (10mM Tris-HCl/1 mM EDTA, pH8.0), and the solution was dropped on the DNA chip containing the whole genes of yeast (DNA Chip Research Inc. Japan) so that the cDNAs were hybridized on the DNA chip at 65° C. for over 12 hours. The fluoresces intensity of the DNA chip was read with a scanner, and the ratio relative to the fluorescence intensity resulting from the absence of chemical substance was estimated as the following, which is shown in Tables 1 to 9: […]", "data": [{"compound": "[Cl][Cd][Cl]", "note": "[(2), CdCl2]", "values": [{"measurement": "The level of expressed mRNA in the presence of chemical substance/The level of expressed mRNA in the absence of chemical substance", "setting": "yeast gene YFL057C", "result": 5.8}, {"measurement": "The level of expressed mRNA in the presence of chemical substance/The level of expressed mRNA in the absence of chemical substance", "setting": "yeast gene YFR047C", "result": 4.0}, {"measurement": "level of expressed mRNA in the presence/in the absence of chemical substance", "setting": "yeast gene YGL012W", "result": 0.8}, {"measurement": "The level of expressed mRNA in the presence of chemical substance/The level of expressed mRNA in the absence of chemical substance", "setting": "yeast gene YGL022W", "result": 0.8}, {"measurement": "level of expressed mRNA in the presence/in the absence of chemical substance", "setting": "yeast gene YGL115W", "result": 0.6}, {"measurement": "The level of expressed mRNA in the presence of chemical substance/The level of expressed mRNA in the absence of chemical substance", "setting": "yeast gene YGL126W", "result": 1.3}, {"measurement": "level of expressed mRNA in the presence/in the absence of chemical substance", "setting": "yeast gene YGL205W", "result": 0.9}, {"measurement": "The level of expressed mRNA in the presence of chemical substance/The level of expressed mRNA in the absence of chemical substance", "setting": "yeast gene YGL209W", "result": 1.6}, {"measurement": "The level of expressed mRNA in the presence of chemical substance/The level of expressed mRNA in the absence of chemical substance", "setting": "yeast gene YGL248W", "result": 1.3}, {"measurement": "The level of expressed mRNA in the presence of chemical substance/The level of expressed mRNA in the absence of chemical substance", "setting": "yeast gene YGR037C", "result": 1.2}, {"measurement": "The level of expressed mRNA in the presence of chemical substance/The level of expressed mRNA in the absence of chemical substance", "setting": "yeast gene YGR055W", "result": 5.7}, {"measurement": "level of expressed mRNA in the presence/in the absence of chemical substance", "setting": "yeast gene YGR096W", "result": 1.0}, {"measurement": "level of expressed mRNA in the presence/in the absence of chemical substance", "setting": "yeast gene YGR191W", "result": 0.7}, {"measurement": "The level of expressed mRNA in the presence of chemical substance/The level of expressed mRNA in the absence of chemical substance", "setting": "yeast gene YGR194C", "result": 1.0}, {"measurement": "level of expressed mRNA in the presence/in the absence of chemical substance", "setting": "yeast gene YGR204W", "result": 1.1}, {"measurement": "The level of expressed mRNA in the presence of chemical substance/The level of expressed mRNA in the absence of chemical substance", "setting": "yeast gene YGR256W", "result": 1.5}, {"measurement": "The level of expressed mRNA in the presence of chemical substance/The level of expressed mRNA in the absence of chemical substance", "setting": "yeast gene YGR282C", "result": 0.7}, {"measurement": "level of expressed mRNA in the presence/in the absence of chemical substance", "setting": "yeast gene YGR288W", "result": 0.5}, {"measurement": "level of expressed mRNA in the presence/in the absence of chemical substance", "setting": "yeast gene YHR025W", "result": 0.8}, {"measurement": "The level of expressed mRNA in the presence of chemical substance/The level of expressed mRNA in the absence of chemical substance", "setting": "yeast gene YHR111W", "result": 1.3}, {"measurement": "level of expressed mRNA in the presence/in the absence of chemical substance", "setting": "yeast gene YHR123W", "result": 1.2}, {"measurement": "The level of expressed mRNA in the presence of chemical substance/The level of expressed mRNA in the absence of chemical substance", "setting": "yeast gene YHR137W", "result": 1.0}, {"measurement": "The level of expressed mRNA in the presence of chemical substance/The level of expressed mRNA in the absence of chemical substance", "setting": "yeast gene YHR174W", "result": 1.4}, {"measurement": "The level of expressed mRNA in the presence of chemical substance/The level of expressed mRNA in the absence of chemical substance", "setting": "yeast gene YHR176W", "result": 2.0}, {"measurement": "level of expressed mRNA in the presence/in the absence of chemical substance", "setting": "yeast gene YHR210C", "result": 1.0}, {"measurement": "level of expressed mRNA in the presence/in the absence of chemical substance", "setting": "yeast gene YIL006W", "result": 1.1}, {"measurement": "The level of expressed mRNA in the presence of chemical substance/The level of expressed mRNA in the absence of chemical substance", "setting": "yeast gene YIL045W", "result": 1.4}, {"measurement": "The level of expressed mRNA in the presence of chemical substance/The level of expressed mRNA in the absence of chemical substance", "setting": "yeast gene YIL107C", "result": 0.8}, {"measurement": "The level of expressed mRNA in the presence of chemical substance/The level of expressed mRNA in the absence of chemical substance", "setting": "yeast gene YIL154C", "result": 1.3}, {"measurement": "The level of expressed mRNA in the presence of chemical substance/The level of expressed mRNA in the absence of chemical substance", "setting": "yeast gene YIL155C", "result": 0.7}, {"measurement": "The level of expressed mRNA in the presence of chemical substance/The level of expressed mRNA in the absence of chemical substance", "setting": "yeast gene YIR034C", "result": 1.1}, {"measurement": "The level of expressed mRNA in the presence of chemical substance/The level of expressed mRNA in the absence of chemical substance", "setting": "yeast gene YIR036C", "result": 1.7}, {"measurement": "The level of expressed mRNA in the presence of chemical substance/The level of expressed mRNA in the absence of chemical substance", "setting": "yeast gene YJL031C", "result": 1.2}, {"measurement": "The level of expressed mRNA in the presence of chemical substance/The level of expressed mRNA in the absence of chemical substance", "setting": "yeast gene YJL068C", "result": 2.7}, {"measurement": "The level of expressed mRNA in the presence of chemical substance/The level of expressed mRNA in the absence of chemical substance", "setting": "yeast gene YJL088W", "result": 0.8}, {"measurement": "The level of expressed mRNA in the presence of chemical substance/The level of expressed mRNA in the absence of chemical substance", "setting": "yeast gene YJL099W", "result": 1.2}, {"measurement": "level of expressed mRNA in the presence/in the absence of chemical substance", "setting": "yeast gene YJL121C", "result": 0.5}, {"measurement": "level of expressed mRNA in the presence/in the absence of chemical substance", "setting": "yeast gene YJL167W", "result": 1.4}, {"measurement": "The level of expressed mRNA in the presence of chemical substance/The level of expressed mRNA in the absence of chemical substance", "setting": "yeast gene YJL172W", "result": 2.1}, {"measurement": "level of expressed mRNA in the presence/in the absence of chemical substance", "setting": "yeast gene YJL216C", "result": 4.7}, {"measurement": "The level of expressed mRNA in the presence of chemical substance/The level of expressed mRNA in the absence of chemical substance", "setting": "yeast gene YJL219W", "result": 2.5}, {"measurement": "level of expressed mRNA in the presence/in the absence of chemical substance", "setting": "yeast gene YJR077C", "result": 1.1}, {"measurement": "The level of expressed mRNA in the presence of chemical substance/The level of expressed mRNA in the absence of chemical substance", "setting": "yeast gene YJR137C", "result": 2.9}, {"measurement": "level of expressed mRNA in the presence/in the absence of chemical substance", "setting": "yeast gene YJR143C", "result": 0.6}, {"measurement": "The level of expressed mRNA in the presence of chemical substance/The level of expressed mRNA in the absence of chemical substance", "setting": "yeast gene YJR148W", "result": 1.4}]}]}
